What was measured:
Type in all cases: in vivo
[1] = test system: Abutilon theophrasti Medic.; experiment: Bioassay of herbicidal activity in greenhouse (further screening)
Summary of the method: (§1)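 Visual growth inhibition rating (0–100%; 100 = weeds dead or not emerged) after track-sprayer application of compounds formulated as emulsifiable concentrates. Sprays given 24 h post-sowing (pre-emergence) or at 2–3-leaf (grasses) / 2–4-leaf (broad-leaves) stage, greenhouse-grown plants.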

[2] = test system: Echinochloa crus-galli (L.) Beauv.; experiment: as above
Summary of the method: as §1

[3] = test system: Setaria glauca (L.) Beauv.; experiment: as above
Summary of the method: as §1

Zinnia elegans Jacq. = experiment: as above
Summary of the method: as §1

[4] = test system: broad-leaf weeds and grass weeds; experiment: General screening of herbicidal activity in greenhouse; details: 1000 g a.i./hm^2;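 also: 0 means no visible effect and 100 means all weeds dead or not emerged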
Summary of the method: as §1

maize = experiment: Crop safety study in greenhouse; details: 7.5-37.5 g a.i./hm^2; pre-emergence and post-emergence application
Text: (§2) Seeds of soybean, cotton, maize, wheat and rice were sown in nutrition soil in paper pot (9 cm diameter), covered with soil in 1 cm and grown in the greenhouse under good growth conditions (temperature, atmospheric humidity, water supply). The compounds of the present invention as emulsifiable concentrate, were applied in pre-emergence and post-emergence treatment by track sprayer (Engineer Research Ltd., pressure 1.95 kg/cm^2, volume 500 L/hm^2, track speed 1.48 km/h). Pre-emergence treatment was conducted after seeding 24 hours and post-emergence treatment was done when the respective weeds reached predetermined leaf stage (soybean and cotton at 2- to 4-leaf stage and maize, wheat and rice at 3-leaf stage), the state of growth of the respective crops were visually observed to determine the safety in accordance with the following evaluation standard.
(§3) Safety rating scale (%): 0 means no damage to crops; 100 means to kill crops completely.

rice = experiment: Crop safety study in greenhouse; details: 7.5-37.5 g a.i./hm^2; pre-emergence and post-emergence application
Text: as §2, §3

wheat = experiment: Crop safety study in greenhouse; details: 7.5-37.5 g a.i./hm^2; pre-emergence and post-emergence application
Text: as §2, §3

## Cn1c(C(F)(F)F)cc(=O)n(-c2cc(C3=NOC(C)(COC(=O)COc4ccc(Cl)cc4Cl)C3)c(Cl)cc2F)c1=O (centres unmarked) [Compound 83]
[1]; dose 7.5 g a.i./hm^2
  Growth inhibition rate, Post-emergence treatment, Abutilon theophrasti Medic.: 65%
  Growth inhibition rate, Pre-emergence treatment, Abutilon theophrasti Medic.: 0%
[1]; dose 15 g a.i./hm^2
  Growth inhibition rate, Post-emergence treatment, Abutilon theophrasti Medic.: 98%
  Growth inhibition rate, Pre-emergence treatment, Abutilon theophrasti Medic.: 30%
[1]; dose 37.5 g a.i./hm^2
  Growth inhibition rate, Post-emergence treatment, Abutilon theophrasti Medic.: 100%
  Growth inhibition rate, Pre-emergence treatment, Abutilon theophrasti Medic.: 50%
[1]; dose 150 g a.i./hm^2
  Growth inhibition rate, Post-emergence treatment, Abutilon theophrasti Medic.: 100%
  Growth inhibition rate, Pre-emergence treatment, Abutilon theophrasti Medic.: 100%
[1]; dose 600 g a.i./hm^2
  Growth inhibition rate, Post-emergence treatment, Abutilon theophrasti Medic.: 100%
  Growth inhibition rate, Pre-emergence treatment, Abutilon theophrasti Medic.: 100%
[2]; dose 7.5 g a.i./hm^2
  Growth inhibition rate, Post-emergence treatment, Echinochloa crus-galli (L.) Beauv.: 25%
  Growth inhibition rate, Pre-emergence treatment, Echinochloa crus-galli (L.) Beauv.: 10%
[2]; dose 15 g a.i./hm^2
  Growth inhibition rate, Post-emergence treatment, Echinochloa crus-galli (L.) Beauv.: 25%
  Growth inhibition rate, Pre-emergence treatment, Echinochloa crus-galli (L.) Beauv.: 10%
[2]; dose 37.5 g a.i./hm^2
  Growth inhibition rate, Post-emergence treatment, Echinochloa crus-galli (L.) Beauv.: 30%
  Growth inhibition rate, Pre-emergence treatment, Echinochloa crus-galli (L.) Beauv.: 25%
[2]; dose 150 g a.i./hm^2
  Growth inhibition rate, Post-emergence treatment, Echinochloa crus-galli (L.) Beauv.: 45%
  Growth inhibition rate, Pre-emergence treatment, Echinochloa crus-galli (L.) Beauv.: 90%
[2]; dose 600 g a.i./hm^2
  Growth inhibition rate, Post-emergence treatment, Echinochloa crus-galli (L.) Beauv.: 90%
  Growth inhibition rate, Pre-emergence treatment, Echinochloa crus-galli (L.) Beauv.: 100%
[3]; dose 7.5 g a.i./hm^2
  Growth inhibition rate, Post-emergence treatment, Setaria glauca (L.) Beauv.: 30%
  Growth inhibition rate, Pre-emergence treatment, Setaria glauca (L.) Beauv.: 10%
[3]; dose 15 g a.i./hm^2
  Growth inhibition rate, Post-emergence treatment, Setaria glauca (L.) Beauv.: 45%
  Growth inhibition rate, Pre-emergence treatment, Setaria glauca (L.) Beauv.: 15%
[3]; dose 37.5 g a.i./hm^2
  Growth inhibition rate, Post-emergence treatment, Setaria glauca (L.) Beauv.: 50%
  Growth inhibition rate, Pre-emergence treatment, Setaria glauca (L.) Beauv.: 35%
[3]; dose 150 g a.i./hm^2
  Growth inhibition rate, Post-emergence treatment, Setaria glauca (L.) Beauv.: 70%
  Growth inhibition rate, Pre-emergence treatment, Setaria glauca (L.) Beauv.: 80%
[3]; dose 600 g a.i./hm^2
  Growth inhibition rate, Post-emergence treatment, Setaria glauca (L.) Beauv.: 85%
  Growth inhibition rate, Pre-emergence treatment, Setaria glauca (L.) Beauv.: 100%
Zinnia elegans Jacq.; dose 7.5 g a.i./hm^2
  Growth inhibition rate, Post-emergence treatment, Zinnia elegans Jacq.: 65%
  Growth inhibition rate, Pre-emergence treatment, Zinnia elegans Jacq.: 0%
Zinnia elegans Jacq.; dose 15 g a.i./hm^2
  Growth inhibition rate, Post-emergence treatment, Zinnia elegans Jacq.: 90%
  Growth inhibition rate, Pre-emergence treatment, Zinnia elegans Jacq.: 10%
Zinnia elegans Jacq.; dose 37.5 g a.i./hm^2
  Growth inhibition rate, Post-emergence treatment, Zinnia elegans Jacq.: 98%
  Growth inhibition rate, Pre-emergence treatment, Zinnia elegans Jacq.: 50%
Zinnia elegans Jacq.; dose 150 g a.i./hm^2
  Growth inhibition rate, Post-emergence treatment, Zinnia elegans Jacq.: 100%
  Growth inhibition rate, Pre-emergence treatment, Zinnia elegans Jacq.: 100%
Zinnia elegans Jacq.; dose 600 g a.i./hm^2
  Growth inhibition rate, Post-emergence treatment, Zinnia elegans Jacq.: 100%
  Growth inhibition rate, Pre-emergence treatment, Zinnia elegans Jacq.: 100%
[4]
  pre-emergence and post-emergence herbicidal activity against broad-leaf weeds and grass weeds: good
maize
  Crop safety, maize: good safety
rice
  Crop safety, rice: good safety
wheat
  Crop safety, wheat: good safety
